Laboratory results: PMC7156458, “Synthetic biology based construction of biological activity-related library of fungal decalin-containing diterpenoid pyrones” (Nature Communications, 2020)

Key:
Experiment in all cases: cells
Parameters in all cases: species or system JFCR39 human cancer cell lines; JFCR39 panel growth inhibition, sulforhodamine B total protein after 48 h
ACHN = conditions: 48 h; for Log GI50: inhibitor, Log GI50, 48 h; for GI50: Homo sapiens, ACHN
Summary of the method: (§1)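 SRB assay, 48 h drug exposure, JFCR39 panel; RPMI-1640 + 5% FBS, 37°C/5% CO2. Read-out: total cellular protein. GI50 calculated from duplicates.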

DMS114 = conditions: for Log GI50: 48 h, inhibitor, Log GI50, 48 h; for GI50: Homo sapiens, DMS-114, 48 h
Summary of the method: as §1

HBC-5 = conditions: for GI50: HBC5, 48 h
Summary of the method: as §1

HCT-116 = conditions: for GI50: Homo sapiens, HCT-116, 48 h
Summary of the method: as §1

HT-29 = conditions: for GI50: Homo sapiens, HT-29, 48 h
Summary of the method: as §1

LOX-IMVI = conditions: 48 h; for Log GI50: inhibitor, Log GI50, 48 h; for GI50: Homo sapiens, LOX IMVI
Summary of the method: as §1

MKN-A = conditions: 48 h; for Log GI50: inhibitor, Log GI50, 48 h
Summary of the method: as §1

MKN-B = conditions: 48 h; for Log GI50: inhibitor, Log GI50, 48 h
Summary of the method: as §1

MKN1 = conditions: for GI50: Homo sapiens, MKN-1, 48 h
Summary of the method: as §1

MKN45 = conditions: for GI50: Homo sapiens, MKN-45, 48 h
Summary of the method: as §1

MKN74 = conditions: for Log GI50: 48 h, inhibitor, Log GI50, 48 h; for GI50: Homo sapiens, MKN-74, 48 h
Summary of the method: as §1

NCI-H226 = conditions: for Log GI50: 48 h, inhibitor, Log GI50, 48 h; for GI50: Homo sapiens, NCI-H226, 48 h
Summary of the method: as §1

NCI-H23 = conditions: for GI50: Homo sapiens, NCI-H23, 48 h
Summary of the method: as §1

NCI-H522 = conditions: for GI50: Homo sapiens, NCI-H522, 48 h
Summary of the method: as §1

OVCAR-3 = conditions: for GI50: Homo sapiens, OVCAR-3, 48 h
Summary of the method: as §1

OVCAR-5 = conditions: for GI50: Homo sapiens, OVCAR-5, 48 h
Summary of the method: as §1

OVCAR-8 = conditions: for GI50: Homo sapiens, OVCAR-8, 48 h
Summary of the method: as §1

PC-3 = conditions: for GI50: Homo sapiens, PC-3, 48 h
Summary of the method: as §1

RXF-631L = conditions: 48 h; for GI50: RXF-631L
Summary of the method: as §1

SF-268 = conditions: for GI50: Homo sapiens, SF-268, 48 h
Summary of the method: as §1

SNB-78 = conditions: for GI50: Homo sapiens, SNB-78, 48 h
Summary of the method: as §1

[1] = 48 h, inhibitor, Log GI50, 48 h

Structure (SMILES) | Log GI50 (ACHN) [M] | GI50 (HBC-5) [µM] | GI50 (HCT-116) [µM] | GI50 (HT-29) [µM] | GI50 (MKN1) [µM] | GI50 (MKN45) [µM] | GI50 (NCI-H23) [µM] | GI50 (NCI-H522) [µM] | GI50 (OVCAR-3) [µM] | GI50 (OVCAR-5) [µM] | GI50 (OVCAR-8) [µM] | GI50 (PC-3) [µM] | GI50 (RXF-631L) [µM] | GI50 (SF-268) [µM] | GI50 (SNB-78) [µM] | GI50 (ACHN) [µM] | GI50 (DMS114) [µM] | GI50 (MKN-B) [µM] | GI50 (MKN74) [µM] | GI50 (NCI-H226) [µM] | other results
C=C1CCC2C(C)(CCC=C(C)C)C(O)CCC2(C)C1Cc1c(OC)oc(CO)c(C)c1=O (centres unmarked) [Compound 12] | -4.976 | 8.73 | 2.63 | 12.6 | 13.7 | 13.4 | 1.95 | 1.46 | 4.69 | 19.5 | 5.64 | 4.92 | 16.1 | 12.3 | 13.3 |  |  |  |  |  | Log GI50 (DMS114): -7.363 M; Log GI50 (LOX-IMVI): -6.218 M; Log GI50 (MKN-A): -6.771 M; Log GI50 (MKN-B): -5.948 M; Log GI50 (MKN74): -5.381 M; Log GI50 (NCI-H226): -4.935 M
C=C1CCC2C(C)(CCC=C(C)C)C(O)CCC2(C)C1Cc1c(OC)oc(CO)c(C)c1=O (centres unmarked) [Compound 16] | -5.541 |  |  |  |  |  |  |  |  |  |  |  |  |  |  |  |  |  |  |  | Log GI50 (DMS114): -6.139 M; Log GI50 (HBC-5; [1]): -4.986 M; Log GI50 (HCT-116; [1]): -5.292 M; Log GI50 (HT-29; [1]): -4.904 M; Log GI50 (LOX-IMVI): -5.224 M; Log GI50 (MKN-A): -5.445 M; Log GI50 (MKN-B): -5.237 M; Log GI50 (MKN1; [1]): -4.787 M; Log GI50 (MKN45; [1]): -4.853 M; Log GI50 (MKN74): -4.995 M; Log GI50 (NCI-H226): -5.269 M; Log GI50 (NCI-H23; [1]): -5.618 M; Log GI50 (NCI-H522; [1]): -5.659 M; Log GI50 (OVCAR-3; [1]): -5.447 M; Log GI50 (OVCAR-5; [1]): -4.859 M; Log GI50 (OVCAR-8; [1]): -5.076 M; Log GI50 (PC-3; [1]): -5.211 M; Log GI50 (RXF-631L; inhibitor, Log GI50, 48 h): -4.839 M; Log GI50 (SF-268; [1]): -4.944 M; Log GI50 (SNB-78; [1]): -4.939 M
C=C1CCC2C(C)(CCC=C(C)C)C(O)CCC2(C)C1Cc1c(OC)oc(C)c(C)c1=O (centres unmarked) [Compound 11] |  | 13.9 | 0.736 | 13.6 | 30.6 | 18.6 |  | 1.95 | 3.61 | 42.4 | 3.61 |  | 19.3 | 14 | 21.9 | 11 | 0.0565 | 3.7 | 4.76 | 18.2 | GI50 (MKN-A): 0.308 µM
C=C1CC[C@H]2[C@]3(C)C[C@@H](C=C(C)C)O[C@H]3CC[C@]2(C)[C@@H]1Cc1c(OC)oc(CO)c(C)c1=O [Compound 17] |  | 11.8 | 0.953 | 14.3 | 19.3 | 14 | 10.8 | 10.5 | 10.5 | 15.5 | 10.8 | 11.1 | 14.4 | 13.2 | 14.2 | 10.8 | 0.0701 | 10 | 13 | 14 | GI50 (LOX-IMVI): 10.4 µM; GI50 (MKN-A): 0.408 µM
C=C1CCC2C(C)(CCC=C(C)C)C(O)CCC2(C)C1Cc1c(OC)oc(C)c(C(=O)OC)c1=O (centres unmarked) [Compound 14] |  | 12.1 | 2.83 | 13.2 | 16.1 | 13 | 2.61 | 1.54 | 10.3 | 18.6 | 8.57 | 10.1 | 14.5 | 12.8 | 14.7 | 10.9 | 0.0942 | 2.01 | 10.8 | 11.7 | GI50 (LOX-IMVI): 10.8 µM
